Measured values published in patent US10195186B2.

Columns and labels:
hSortilin = hSortilin (Homo sapiens (Human), UniProt Q99523); assay: hSortilin affinity assay: displacement of 3H-neurotensin binding, SPA format; conditions: read-out: hSortilin NTS Binding, Inhibition at 50 μM
[1] = target: human sortilin (S-18 cells) (Homo sapiens (Human), UniProt Q99523); assay: Endogenous PGRN endocytosis assay (PGRN ELISA of media); type: cell-based; conditions: PGRN allowed to accumulate 24 hrs, compounds added day 2, further 24 hrs
Chain of human sortilin (S-18 cells) (Q99523 78-831): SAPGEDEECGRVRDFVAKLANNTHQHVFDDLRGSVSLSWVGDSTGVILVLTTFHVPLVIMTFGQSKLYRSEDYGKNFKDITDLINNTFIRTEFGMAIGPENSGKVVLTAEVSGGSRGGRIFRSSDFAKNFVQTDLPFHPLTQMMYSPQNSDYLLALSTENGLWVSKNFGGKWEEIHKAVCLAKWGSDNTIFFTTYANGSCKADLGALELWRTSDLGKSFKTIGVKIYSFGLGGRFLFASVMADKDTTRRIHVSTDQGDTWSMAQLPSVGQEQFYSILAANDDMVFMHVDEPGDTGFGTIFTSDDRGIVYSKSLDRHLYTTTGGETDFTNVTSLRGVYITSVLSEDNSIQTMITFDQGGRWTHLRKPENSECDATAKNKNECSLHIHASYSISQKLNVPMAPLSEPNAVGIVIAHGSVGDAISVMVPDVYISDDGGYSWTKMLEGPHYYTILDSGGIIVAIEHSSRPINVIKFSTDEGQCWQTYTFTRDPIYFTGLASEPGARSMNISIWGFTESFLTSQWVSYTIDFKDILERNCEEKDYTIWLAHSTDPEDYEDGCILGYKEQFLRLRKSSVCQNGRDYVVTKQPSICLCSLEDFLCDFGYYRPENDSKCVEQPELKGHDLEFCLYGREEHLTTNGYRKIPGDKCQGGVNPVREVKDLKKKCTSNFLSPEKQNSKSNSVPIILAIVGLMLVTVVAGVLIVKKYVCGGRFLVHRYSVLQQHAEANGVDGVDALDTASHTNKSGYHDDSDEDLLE
Protocol: Stable cell lines expressing human sortilin (S-18) were generated by transfecting HEK293 cells with a human sortilin expression vector, followed by few rounds of passage with the appropriate selection agent.
On day1, S-18 cells are seeded in a 96 well plate. After 24 hrs, media is completely replaced with either media or one of the test compounds. All compounds were tested at 10 μM unless otherwise specified. Media is collected on day 3 and analyzed using PGRN ELISA (R&D). Cell viability is assessed by Cell TiterGlo (ProMega) to evaluate cytotoxic effect of the compounds.
On day 2, the compounds are added to the cells and incubated for a further 24 hrs, when the media is harvested and PGRN levels analyzed using ELISA kit.

Chain of hSortilin (Q99523 34-755): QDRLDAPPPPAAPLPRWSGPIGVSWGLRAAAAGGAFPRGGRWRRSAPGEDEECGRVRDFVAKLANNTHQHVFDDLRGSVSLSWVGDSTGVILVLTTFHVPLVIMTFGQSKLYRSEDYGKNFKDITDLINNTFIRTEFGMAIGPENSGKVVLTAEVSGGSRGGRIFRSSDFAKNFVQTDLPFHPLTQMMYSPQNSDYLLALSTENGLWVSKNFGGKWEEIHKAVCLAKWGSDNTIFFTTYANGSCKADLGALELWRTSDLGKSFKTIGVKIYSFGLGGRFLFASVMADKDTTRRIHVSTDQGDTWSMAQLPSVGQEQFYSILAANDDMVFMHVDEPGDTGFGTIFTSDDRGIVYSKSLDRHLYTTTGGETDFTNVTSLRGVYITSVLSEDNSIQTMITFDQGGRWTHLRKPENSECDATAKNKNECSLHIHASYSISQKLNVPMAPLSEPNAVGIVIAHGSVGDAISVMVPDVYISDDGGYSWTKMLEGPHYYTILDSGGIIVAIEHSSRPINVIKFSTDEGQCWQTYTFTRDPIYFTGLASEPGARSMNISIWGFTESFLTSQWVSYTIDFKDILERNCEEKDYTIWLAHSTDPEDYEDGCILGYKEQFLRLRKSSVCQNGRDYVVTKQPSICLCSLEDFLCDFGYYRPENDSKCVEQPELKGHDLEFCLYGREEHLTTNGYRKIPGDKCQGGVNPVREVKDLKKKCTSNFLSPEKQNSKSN

## Cc1ccc(NC(=O)c2ccc(Br)cc2C(=O)O)cn1 [Example 31, 5-Bromo-N-(6-methyl-pyridin-3-yl)-phthalamic acid]
hSortilin
  inhibition at 50 µM: 70%

## scrambled neurotensin: scrambled neurotensin, sequence LIYPRNEYELRKP (SEQ ID NO:1); does not bind sortilin, negative control (Scrambled Human Neurotensin) [reference compound]
[1]
  PGRN levels in cell culture media, competition paradigm (FIG. 1): did not have any effect

## Cc1cccc(NC(=O)c2ccc(C(F)(F)F)cc2C(=O)O)n1 [Example 1, N-(6-Methyl-pyridin-2-yl)-5-trifluoromethyl-phthalamic acid]
[1]
  PGRN levels in cell culture media, competition paradigm (FIG. 1): increase in PGRN levels

## Cc1cccnc1NC(=O)c1ccc(Br)cc1C(=O)O [Example 27, 5-Bromo-N-(3-methyl-pyridin-2-yl)-phthalamic acid]
hSortilin
  inhibition at 50 µM: 64%
